Results on three compounds are retold here after publication PMC8466825, “Mass Spectrometric Quantification of the Antimicrobial Peptide Pep19-2.5 with Stable Isotope Labeling and Acidic Hydrolysis” (Pharmaceutics, 2021).

This data set can be described thus: Stability of aromatic amino acids during acidic hydrolysis (HPLC). The format is physicochemical. As to conditions: hydrochloric acid, 24 h at 120 °C, 1 mg/mL before hydrolysis, HPLC with UV 214 nm. As to the method:
For acidic hydrolysis 10 µL ^13C6(ring) phenylalanine (1 mg/mL stock) were added as internal standard to 200 µL water containing ^13C9,^15N1 phenylalanine (for calibration curve) or human serum (from voluntary donors) containing Pep19-2.5 with four ^13C9,^15N1 phenylalanine residues. After addition of 270 µL hydrochloric acid (10 M), the samples were hydrolyzed at 120 °C for 24 h. Subsequently, the solvent was evaporated in a vacuum evaporator (HETOVAC) at 40 °C for 4 h and the pellet was resuspended in water to achieve the applied concentration.
HPLC analysis was performed using an Agilent 1100 system with an UV-detection at 214 nm. As stationary phase a Chromolith® Performance RP-18e 100–3 mm column (Merck KGaA, Darmstadt, Germany) was used. A 5 min linear gradient from 100% water (+0.05% trifluoroacetic acid (TFA)) to 100% acetonitrile (+0.05% TFA) was applied.
For an accurate determination it is necessary to select an amino acid which is stable under the extreme conditions in the hydrolysis step (24 h, 120 °C). Moreover, the development of the method is facilitated if the amino acid is UV-active and more importantly in case of hydrophobic amino acids that are separated from the bulk of amino acids by RP-HPLC. Due to this, the three aromatic amino acids phenylalanine, tryptophan and tyrosine were hydrolyzed, and their stability analyzed by HPLC, as shown in Figure 4.
With `N[C@@H](Cc1ccccc1)C(=O)O` [phenylalanine], the “stability during the acidic hydrolysis process” value is listed as “sufficiently stable”.

Turning to `N[C@@H](Cc1c[nH]c2ccccc12)C(=O)O` [Tryptophan, tryptophan], the “stability during the acidic hydrolysis process” value was “forms several degradation products”.

On to `N[C@@H](Cc1ccc(O)cc1)C(=O)O` [tyrosine], for which the “stability during the acidic hydrolysis process” value is “degraded to poorly soluble products”.
